Laboratory results as given in paper PMC7810238, “Design, synthesis, and evaluation of Bothrops venom serine protease peptidic inhibitors” (The Journal of Venomous Animals and Toxins Including …, 2021).
Where no end group is shown, it is not given here. [ ]: non-standard residue; d: D form.

Tests used:
[1] = test system: batroxobin; assay: batroxobin thrombin-like activity, chromogenic substrate S-2238; type: biochemical, B. moojeni; settings: for inhibition of batroxobin activity: peptide 60 µg/mL, absorbance 405 nm
Procedure: (§1) Batroxobin and human thrombin activities were evaluated using the chromogenic substrate S-2238 (Chromogenix). Briefly, batroxobin (0.8 U) or human thrombin (0.8U) was pre-incubated at 37°C for 10 minutes with different concentrations (0 to 1 mg/mL for batroxobin, and 60 µg/mL, for human thrombin), of each peptide in Tris/HCl buffer […], containing CaCl2 0.02% (v/v), pH 8.0. Enzymatic reaction was initiated by addition of substrate (200µM), followed by incubation at 37°C, for 20 minutes. When serine protease activity from BjV was evaluated using the chromogenic substrate S2238, 5 µg of BjV and 60 µg/mL of each peptide were employed.
(§2) For all assays using chromogenic substrates, hydrolysis was quantified by evaluation of absorbance at 405 nm, in a spectrophotometer SpectraMax® Paradigm® Multi-Mode reader from Molecular Devices (Sunnyvale, CA).
(§3) SVSPs activity from BjV was also evaluated using the fluorogenic substrate Abz-Ser. Briefly, BjV (5 µg/100µL) was pre-incubated at 37 °C for 10 minutes with 100 µg/mL of each peptide, in PBS pH 7.4 containing 20mM NaCl. Enzymatic reaction was initiated by addition of substrate (10 µM), followed by incubation at 37°C, for 20 minutes. The substrate hydrolysis was monitored following fluorescence emitted at 420 nm, under excitation at 320 nm in a spectrofluorimeter (Victor 3^TM Perkin- Elmer, Boston, MA, USA), as described by Araujo et al. (2000). All the experiments were made in triplicate.
Figure 2. Evaluation of the effects of synthetic peptides on batroxobin and on human serine proteases activities. (A) Batroxobin activity was evaluated after 20 min, at 37 °C, using the chromogenic substrate S-2238 and the indicated concentrations of synthetic peptides. (B, C, D) Commercial hSPs had their activity evaluated after 20 min, at 37 °C, using their specific chromogenic substrates and batroxobin inhibitory peptides at 60 µg/mL.

[2] = test system: Bothrops spp venom SVSPs; settings: ref [9]; cited from earlier work
Procedure: In this context, the use of selective SVSPs inhibitory compounds, in association with available commercial antivenoms, could be a starting point for studies aiming snakebite treatment efficacy improvement. Therefore, in the present study, small peptides were evaluated as potential SVSPs inhibitors.

[3] = test system: Bothrops jararaca venom (BjV) serine proteases; assay: BjV serine protease (thrombin-like) activity, chromogenic substrate S2238; type: biochemical; settings: BjV 5 µg, peptide 60 µg/mL or 100 µg/mL, S2238 200 µM or 2 mM, 20 min 37°C, 405 nm, triplicate
Procedure: as §1, §2
(§4) SVSPs activity from BjV was also evaluated using the fluorogenic substrate Abz-Ser. Briefly, BjV (5 µg/100µL) was pre-incubated at 37 °C for 10 minutes with 100 µg/mL of each peptide, in PBS pH 7.4 containing 20mM NaCl. Enzymatic reaction was initiated by addition of substrate (10 µM), followed by incubation at 37°C, for 20 minutes. The substrate hydrolysis was monitored following fluorescence emitted at 420 nm, under excitation at 320 nm in a spectrofluorimeter (Victor 3^TM Perkin- Elmer, Boston, MA, USA), as described by Araujo et al. (2000). […]

[4] = test system: human factor Xa; assay: proteolytic activity of human factor Xa, chromogenic substrate CS-11(22); type: biochemical; settings: peptide 60 µg/mL; factor Xa 20nM; pre-incubated 10 min 37°C, Tris/HCl 20 mM, NaCl 150 mM, pH 7.4; CS-11(22) 100µM, 20 min 37°C; 405 nm; triplicate
Procedure: Proteolytic activity of human factor Xa was evaluated using the chromogenic substrate CS-11(22) (Hyphen). Briefly, factor Xa (20nM) was pre-incubated for 10 minutes at 37°C with 60 µg/mL of each peptide in Tris/HCl buffer 20 mM, pH 7.4 containing NaCl 150 mM. Enzymatic reaction was initiated by the addition of substrate (100µM), followed by incubation at 37°C, for 20 minutes.
as §2
(§5) SVSPs activity from BjV was also evaluated using the fluorogenic substrate Abz-Ser. Briefly, BjV (5 µg/100µL) was pre-incubated at 37 °C for 10 minutes with 100 µg/mL of each peptide, in PBS pH 7.4 containing 20mM NaCl. […] The substrate hydrolysis was monitored following fluorescence emitted at 420 nm, under excitation at 320 nm in a spectrofluorimeter (Victor 3^TM Perkin- Elmer, Boston, MA, USA), as described by Araujo et al. (2000). […]
(§6) Figure 2. […] (A) Batroxobin activity was evaluated after 20 min, at 37 °C, using the chromogenic substrate S-2238 and the indicated concentrations of synthetic peptides. (B, C, D) Commercial hSPs had their activity evaluated after 20 min, at 37 °C, using their specific chromogenic substrates and batroxobin inhibitory peptides at 60 µg/mL.

[5] = test system: Bothrops jararaca venom (BjV) SVSPs; assay: BjV SVSPs activity, fluorogenic substrate Abz-Ser; type: biochemical; settings: peptide 100 µg/mL; for inhibition of BjV serine protease activity on Abz-Ser: substrate Abz-Ser 10 µM, BjV 5 µg/100µL, pre-incubated 10 min 37°C, PBS pH 7.4, 20mM NaCl, 20 min 37°C, fluorescence 420 nm (ex 320 nm), triplicate
Procedure: as §3
Figure 3. Evaluation of synthetic peptides on Bothrops venom serine-proteases. BjV was pre-incubated with 100 µg/mL of pepB or pepC and a serine proteases activity was evaluated after 20 min, at 37 °C, with (A) 2 mM of substrate S2238 or (B) 10 µM of substrate Abz-Ser.

[6] = test system: human trypsin; assay: proteolytic activity of human trypsin, chromogenic substrate BAPNA; type: biochemical; settings: peptide 60 µg/mL; trypsin 126 nM; pre-incubated 10 min 37°C, Tris/HCl 50 mM, CaCl2 0.02%, pH 8.0; BAPNA 1.25 mM, 20 min 37°C; 405 nm; triplicate
Procedure: Proteolytic activity of human trypsin was evaluated using the chromogenic substrate BAPNA (Sigma). Briefly, trypsin (126 nM) was pre-incubated for 10 minutes at 37°C with 60 µg/mL of each peptide in Tris/HCl buffer 50 mM containing CaCl2 0.02% (v/v), pH 8.0. Enzymatic reaction was initiated by addition of substrate (1.25 mM), followed by incubation at 37°C, for 20 minutes.
as §2, §5, §6

[7] = test system: human thrombin; assay: human thrombin activity, chromogenic substrate S-2238; type: biochemical; settings: peptide 60 µg/mL; human thrombin 0.8U; pre-incubated 10 min 37°C, Tris/HCl 0.15mM, CaCl2 0.02%, pH 8.0; S-2238 200 µM, 20 min 37°C; 405 nm; triplicate
Procedure: as §1, §2, §4

[8] = batroxobin 0.8 U, pre-incubated 10 min 37°C, Tris/HCl 0.15mM, CaCl2 0.02%, pH 8.0, S-2238 200 µM, 20 min 37°C, triplicate

Row | Substance | inhibition of batroxobin activity (in words) ([1]; tested until 1 mg/mL, batroxobin 0.8 U, pre-incubated 10 min 37°C, Tris/HCl 0.15mM, CaCl2 0.02%, pH 8.0, S-2238 200 µM, 20 min 37°C, triplicate) | selectivity as substrate for Bothrops spp venom SVSPs [2] | inhibition of BjV thrombin-like activity [3] | effect on catalytic activity of human factor Xa [4] | inhibition of BjV serine protease activity on Abz-Ser [5] | effect on catalytic activity of human trypsin [6] | inhibition of batroxobin activity [1, 8] | effect on catalytic activity of human thrombin [7] | inhibitory effect of pepB relative to pepC on BjV with Abz-Ser ([5]; pepB compared with pepC) | efficiency on batroxobin relative to pepC ([1]; pepB compared with pepC)
1 | PFYQAS [pepA, 6-mer peptide designed based on carboxyl-terminus of the substrate Abz-Ser] | did not inhibit batroxobin activity |  |  |  |  |  |  |  |  | 
2 | Abz-RPPGFSPFRQ-EDDnp [Abz-Ser] |  | selective for Bothrops spp venom SVSPs |  |  |  |  |  |  |  | 
3 | PFYQSS [pepC, 6-mer peptide related to pepA, a Ser instead of Ala] |  |  | 18 ± 2% | none of the peptides inhibited human serine proteases | 19.3 ± 0.7% | none of the peptides inhibited human serine proteases | 18 ± 4% | none of the peptides inhibited human serine proteases |  | 
4 | PF[dR]QAS [pepB, 6-mer peptide related to pepA, D-Arg replacing Tyr] |  |  | 15 ± 3% | none of the peptides inhibited human serine proteases | 5.4 ± 0.7% | none of the peptides inhibited human serine proteases | 36 ± 7% | none of the peptides inhibited human serine proteases | 4 times less efficient | twice more efficient than pepC
